# Earlier results as cited in patent publication US11980701B2, “Joint implant with constant and continuous release of therapeutic agent” (Diffusion RX, Inc., priority 2021, dated 2024).
# Assays:
# [1] = system: articular joint pain/inflammation; details: known treatments
# cartilage = details: at low doses
Compound,length of effectiveness (FIG. 5A) [1],cartilage effect in in vivo studies (cartilage)
"C[C@]12CCC(=O)C=C1CC[C@@H]1[C@@H]2C(=O)C[C@@]2(C)[C@H]1CC[C@]2(O)C(=O)CO [cortisone shot, cortisone]",six to twelve,–
C[C@]12CCC(=O)C=C1CC[C@@H]1[C@@H]2[C@@H](O)C[C@@]2(C)[C@H]1CC[C@]2(O)C(=O)CO [hydrocortisone],–,significant cartilage protection
C[C@]12C=CC(=O)C=C1CC[C@H]1[C@@H]3C[C@@H](O)[C@](O)(C(=O)CO)[C@@]3(C)C[C@H](O)[C@@]12F [triamcinolone],–,significant cartilage protection
